Laboratory results: PMC11820896, “New Compounds with Enhanced Biological Activity Through the Strategic Introduction of Silylated Groups into Hydroxystearic Acids” (Molecules, 2025)

Legend:
Format in all cases: cell-based, human
MTT assay, Caco-2 cells = conditions: human, versus normal I407 cells, read-out: S.I. (Selective Index), Caco-2
Method: (§1) The human colorectal adenocarcinoma (Caco-2), human colorectal adenocarcinoma (HT29), normal human intestinal (I407), human cervical cancer (HeLa), human breast cancer (MCF7), human bone osteosarcoma (U2OS), and human acute T-cell leukemia (Jurkat J6) cell lines were purchased from American Type Culture Collection (ATCC, Manassas, VA, USA). Cells were cultured in RPMI 1640 medium (Labtek Eurobio, Milan, Italy), supplemented with 10% FCS (Euroclone, Milano, Italy) and 2 mM L-glutamine (Sigma-Aldrich, Milano, Italy), at 37 °C and in a 5% CO2 atmosphere. The compounds were dissolved in DMSO in a 30–40 mM stock solution. In cell treatments, the final DMSO concentration never exceeded 0.1%.
(§2) Cells were seeded in a 96-well culture plastic plate (Sarsted, Milan, Italy), at 5 × 10^4 cells/well and, after 24 h, were exposed to increasing concentrations of the different compounds (from 1 nM to 500 nM) dissolved in RPMI 1640 medium. An MTT assay was performed according to Micheletti et al..
(§3) The absorbance at 570 nm was measured using a multi-well plate reader (Tecan, Männedorf, Switzerland), and data were analyzed by Prism GraphPad 8 software and expressed as IC50 nM.

Caco-2 = assay: MTT assay, Caco-2 cells; conditions: Homo sapiens, MTT after 24 h of treatment, means of four experiments
Method: as §1, §2, §3

SCD1 [1] = assay: SCD1 mRNA expression, qRT-PCR; conditions: after 24 h, HT29
Method: Total RNA from control- and 4-treated HT29 cells was isolated using the RNeasy Mini Kit (Qiagen, Hilden, Germany) according to the manufacturer's protocol. RNA was quantified using the NanoDrop spectrophotometer (Thermo Fisher Scientific, Waltham, MA, USA). RNA (1 μg) was transcribed into cDNA using the PrimeScript RT Master Mix (Perfect Real Time) (Takara Bio, Kusatsu, Japan) according to the manufacturer's instructions. Real-time PCR was performed using the Sybr Premix Ex Taq Takara kit (Takara Bio, Kusatsu, Japan) and the LightCycler 2.0 instrument (Roche Diagnostic, Basel, Switzerland). The following primers (Sigma-Aldrich, Milan, Italy) were used: [NT] (forward) and [NT] (reverse) for FASN detection, [NT] (forward) and [NT] (reverse) for SCD1 detection, and [NT] (forward) and [NT] (reverse) for the detection of β-actin. The first gene analyzed was the housekeeping gene β-actin, and its CT values were used as standards in the ΔΔCT method of result analysis. cDNA samples from HT29-treated cells were compared with untreated control cells.

SCD1 [2] = assay: SCD1 protein, Western blot; conditions: 50 nM, 48 h, HT29
Method: HT29 cells were seeded at a density of 5.0 × 10^4 cells/cm^2 in a Petri dish and treated with 50 nM of compound 4 for 48 h. Cells were then washed with PBS and incubated with the lysis buffer radio immunoprecipitation assay (RIPA) at 4 °C for 15 min with agitation. The proteins were quantified using the Bio-Rad protein assay (Bio-Rad, Hercules, CA, USA) and analyzed by SDS-PAGE and Western blot.
For the analysis of protein phosphorylation, protein samples (30 μg) were separated on 12% SDS-PAGE in Tris-glycine buffer by electrophoresis at 200 V for 1 h. […] Densitometric analysis was performed with ImageLab 6.1 software (Bio-Rad, Hercules, CA, USA), and bands were normalized to the respective total protein content. For SCD1 analysis, protein samples were resolved on a 10% gel in MOPS buffer at 200 V for 45 min. After electrophoresis and Western blot, the nitrocellulose membrane was incubated overnight at 4 °C with primary antibody anti-SCD1 (Biorbyt, Durham, NC, USA) diluted in PBS-TWEEN 20 0.1%. The membrane was incubated for 1 h with a secondary horseradish peroxidase-conjugated antibody (GE Healthcare, Chicago, IL, USA) and then detected as described above. Quantification was completed by a Fluor-S Max MultiImager (Bio-Rad, Hercules, CA, USA) using a β-tubulin signal as a control.

For CCCCCCCCC[C@H](CCCCCCCC(=O)O)O[Si](C)(C)C(C)(C)C [Compound 4, (R)-9-((tert-butyldimethylsilyl)oxy)octadecanoic acid], the selectivity ratio (MTT assay, Caco-2 cells) was 2.65, the IC50 (Caco-2) was 23.39 ± 0.12 nM and the SCD1 gene expression (SCD1 [1]) was “decreases”. For the same compound, the SCD1 protein amount (SCD1 [2]) was “decrease in the amount of its protein product”.
